Reference: publication PMC5510229, “BCAT1 controls metabolic reprogramming in activated human macrophages and is associated with inflammatory diseases” (Nature Communications, 2017)

Key:
[1] = Uptake and metabolism of ERG240 in human macrophage lysates by GC/MS; type: in vitro ADME
Source text: NCOMMS-16-23550_Point by Point Responses Papathanassiu et al.
Add additional explanation for “extracellular space” findings because this is unclear.
Authors’ reply. ‘Extracellular space’ has now been replaced by ‘extracellular matrix genes’ in the revised manuscript (Figure 3 in the submitted manuscript which is now Figure 4 in the revised one). We have also added a Volcano plot showing the differentially expressed genes (Figure 4E in the revised manuscript).
Authors fail to cite and discuss this paper found in quick google search “ Nemeth, B.; Doczi, J.; Csete, D.; Kacso, G.; Ravasz, D.; Adams, D.; Kiss, G.; Nagy, A. M.; Horvath, G.; Tretter, L.; Mocsai, A.; Csepanyi-Komi, R.; Iordanov, I.; Adam-Vizi, V.; Chinopoulos, C. (2015).
“Abolition of mitochondrial substrate-level phosphorylation by itaconic acid produced by LPS-induced Irg1 expression in cells of murine macrophage lineage”. The FASEB Journal.
Authors’ reply. This paper is now cited and discussed by adding this following paragraph to the discussion (highlighted text).
Besides its antimicrobial effects, itaconate has been proposed as an inhibitor of substrate level phosphorylation (SLP) through its effect on succinate-CoA ligase in RAW-264.7 cells1.
Statistical analysis (or indications in figures) is lacking in Fig 1C. Fig 4C.
Authors’ reply. Statistical analyses are added for Fig 1C and 4C. Please note that Figure
4C is now Figure 5C in the revised manuscript. (See also highlighted text in figure legends).
Dosing in vitro should be discussed further- 20mM in vitro is a high dose if IC50 is in nM […]
Authors’ reply. ERG240 is a structural analogue of leucine, designed based on the X-ray crystal structure of BCAT1 and, as the reviewer correctly states, it can inhibit BCAT1 within 0.1-1nM range of IC50. The concentration of 20 mM used in the cellular assays is because […]
possible competition with leucine, which is in mM concentration (0.381 mM) in the RPMI media used throughout the study. […]
A cartoon of metabolites regulated would aid the reader. […]
ERG240 can easily be detected […]

[2] = system: mouse bone marrow derived macrophages (BMDMs); assay: BMDM cell number (CyQuant); type: cell-based, C57BL/6 mouse; settings: treatment for 24 h
Source text: Figure 6 ERG240 treatment results in reduced macrophage infiltration in CIA and crescentic glomerulonephritis. (a) Inhibition of murine BMDM migration in vitro in the presence of different concentrations of ERG240 by transwell migration assay (left panel, results are presented as the average of four experiments). The drug had no effect on cell viability (right panel, results are presented as the average of three experiments). (b) IHC analysis of CIA joints for expression of F4/80. Representative images show F4/80+ cells (indicated with an arrow). F4/80+ cell quantification is shown on the right panel. (c) Representative images showing glomerular ED1 (rat CD68)-positive cells in ERG240 treated animals following NTN. Percentage of glomerular ED1-positive cell quantification is shown on the right panel. Error bars are s.e.m. […]
The migration of BMDMs was assessed using a modified Bo yden chamber methodology. […]
To determine the effect of ERG240 on the total number of BMDMs, cell s were plated onto a 96-well plate at a density of 5,000 cells per well in complete media and allowed to adhere overnight. The cells were then exposed to various drug concentrations overnight and the cell population was quantified with CyQuant Cell Proliferation kit (Life Technologies) using triplicates, in two independent experiments. For hMDMs, cell viability was determined using the alamarBlue® Assa y (Invitrogen). […]

For `CC(=O)C(C)CCC(=O)O` (stereo not shown) [ERG240], the “uptake of the compound by cells” value ([1]; 1x10^6 cells treated with 3.28 mg ERG240 (20 mM)) was 0.8 to 3 ng, the “estimated intracellular ERG240 concentration” value ([1]; human macrophages treated with 20 mM) was 70 to 260 nM and the “cellular metabolism of the drug” value ([1]; lysates of human macrophages, GC/MS) was “does not undergo any cellular metabolic reaction”. For the same molecule, the BMDM cell numbers [2] was “did not affect cell numbers”.
